# Laboratory results reported in ChEMBL document CHEMBL1201862, “PubChem BioAssay data set” (2004).
# Activity calls are given as the source filed them.
# Legend:
# [1] = target: Transitional endoplasmic reticulum ATPase (Homo sapiens, UniProt P55072); assay: p97 ATPase inhibitors, dose response, biochemical (AID 1534)
# [2] = target: T1, Sentrin-specific protease 1 (Homo sapiens, UniProt Q9P0U3); assay: Dose response confirmation of small molecule inhibitors of the catalytic domain of the SUMO protease, SENP1 in a FRET assay.; assay type: functional; settings: read-out: IC50_Mean
# T1 sequence (Q9P0U3 whole entry, the tested form may be a part): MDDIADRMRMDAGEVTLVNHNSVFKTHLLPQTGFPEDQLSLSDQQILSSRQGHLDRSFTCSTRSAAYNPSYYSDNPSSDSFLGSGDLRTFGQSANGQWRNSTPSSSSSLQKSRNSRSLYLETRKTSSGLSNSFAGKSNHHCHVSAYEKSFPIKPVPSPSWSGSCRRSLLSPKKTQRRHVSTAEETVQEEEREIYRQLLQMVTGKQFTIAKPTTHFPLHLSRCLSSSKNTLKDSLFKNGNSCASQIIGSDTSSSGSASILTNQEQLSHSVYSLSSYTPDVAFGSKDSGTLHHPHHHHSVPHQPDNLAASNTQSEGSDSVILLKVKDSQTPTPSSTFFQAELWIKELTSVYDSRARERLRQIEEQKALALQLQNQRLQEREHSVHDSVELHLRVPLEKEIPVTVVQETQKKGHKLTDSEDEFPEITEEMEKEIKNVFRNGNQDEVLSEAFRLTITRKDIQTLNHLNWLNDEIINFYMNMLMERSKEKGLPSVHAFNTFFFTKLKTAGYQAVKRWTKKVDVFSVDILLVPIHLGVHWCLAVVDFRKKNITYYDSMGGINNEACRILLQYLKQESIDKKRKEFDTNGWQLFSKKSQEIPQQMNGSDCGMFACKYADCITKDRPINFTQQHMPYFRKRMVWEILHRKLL
# [3] = Luminescence Cell-Based Dose Retest to Confirm Inhibitors of Cancer Stem Cells. [Related pubchem assays (depositor defined):AID2717, AID2721]; assay type: functional; settings: Homo sapiens
# [4] = target: T1, Sentrin-specific protease 1; assay: SENP1 catalytic domain blockers, concentration series – biochemical, kinetic FRET, dose response (AID 651697); assay type: functional; settings: read-out: IC50_Mean
# [5] = target: Transitional endoplasmic reticulum ATPase (Homo sapiens, UniProt P55072, C522A); assay: C522A mutant p97 ATPase inhibitors, dose response, counter-screen for p97 inhibitor project, biochemical, luminescence (AID 1544)
# Beta-lactamase [6] = target: T2, Beta-lactamase (Pseudomonas aeruginosa, UniProt Q79MP6); assay: inhibition of IMP-1 beta-lactamase activity – biochemical, epi-absorbance, selectivity assay for VIM-2 inhibitor project, dose response (AID 1920)
# T2 sequence (Q79MP6 whole entry): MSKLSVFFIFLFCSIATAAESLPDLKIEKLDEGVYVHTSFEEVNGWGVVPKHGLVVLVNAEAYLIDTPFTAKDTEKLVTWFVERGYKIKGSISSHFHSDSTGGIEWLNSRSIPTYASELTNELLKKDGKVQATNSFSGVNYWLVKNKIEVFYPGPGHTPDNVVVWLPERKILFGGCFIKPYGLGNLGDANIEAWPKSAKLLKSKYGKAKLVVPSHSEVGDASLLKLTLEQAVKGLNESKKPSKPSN
# Beta-lactamase [7] = target: T2, Beta-lactamase; assay: […] counterscreen for selective VIM-2 inhibitors: dose response biochemical high throughput screening assay to identify inhibitors of IMP-1 metallo-beta-lactamase.
# Beta-lactamase [8] = target: Beta-lactamase (Salmonella choleraesuis (strain SC-B67), UniProt Q5J463); assay: Epi-absorbance-based counterscreen for selective VIM-2 inhibitors: dose response biochemical high throughput screening assay to identify inhibitors of TEM-1 serine-beta-lactamase.
# [9] = target: T3, Corticotropin-releasing factor receptor 2/Corticotropin-releasing factor-binding protein (Homo sapiens, UniProt P24387+Q13324); assay: activators of CRF receptor 2 with binding protein – uHTS hits, confirmation (AID 602473); assay type: functional; settings: read-out: EC50_Mean
# T3 sequence (Q13324 whole entry): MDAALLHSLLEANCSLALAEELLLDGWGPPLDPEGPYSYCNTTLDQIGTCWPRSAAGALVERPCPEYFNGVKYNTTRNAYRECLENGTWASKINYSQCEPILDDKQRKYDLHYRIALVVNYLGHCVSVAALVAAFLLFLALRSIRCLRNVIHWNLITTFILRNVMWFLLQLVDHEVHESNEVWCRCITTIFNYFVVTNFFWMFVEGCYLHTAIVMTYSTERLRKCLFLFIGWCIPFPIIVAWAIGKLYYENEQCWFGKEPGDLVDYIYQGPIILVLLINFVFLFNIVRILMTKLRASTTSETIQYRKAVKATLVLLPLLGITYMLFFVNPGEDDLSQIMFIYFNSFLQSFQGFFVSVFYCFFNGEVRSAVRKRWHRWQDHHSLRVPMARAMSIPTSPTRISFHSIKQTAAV
# T3 sequence (P24387 whole entry): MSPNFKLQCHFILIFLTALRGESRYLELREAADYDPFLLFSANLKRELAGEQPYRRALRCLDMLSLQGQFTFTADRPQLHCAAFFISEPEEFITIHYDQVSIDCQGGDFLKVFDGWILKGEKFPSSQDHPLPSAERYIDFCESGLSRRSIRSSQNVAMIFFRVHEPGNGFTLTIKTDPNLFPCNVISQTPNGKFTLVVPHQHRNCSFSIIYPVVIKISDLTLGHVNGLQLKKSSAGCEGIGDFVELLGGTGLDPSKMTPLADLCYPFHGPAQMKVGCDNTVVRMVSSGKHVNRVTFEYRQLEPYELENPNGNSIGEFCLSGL
# [10] = target: T3, Corticotropin-releasing factor receptor 2/Corticotropin-releasing factor-binding protein; assay: Dose Response confirmation of uHTS hits for small molecule antagonists of the CRF-binding protein and CRF-R2 receptor complex.; assay type: functional; settings: read-out: IC50_Mean
# [11] = blockers of CRF-binding protein–CRF-R2 complex – cell-based, uHTS hits, 384-well, dose response (AID 651639); assay type: functional, Homo sapiens; settings: read-out: IC50_Mean
# Vero = assay: viability loss in Vero cells – cell-based, plate reader, cherry-pick samples, cytotoxicity control, dose response (AID 687020); assay type: functional; settings: Chlorocebus sabaeus
# Estrogen receptor beta [12] = target: T4, Estrogen receptor beta (Homo sapiens, UniProt Q92731); assay: blockers of SRC-3 recruitment to ERβ – biochemical, ELISA, streptavidin-HRP readout, orthogonal assay, confirmation (AID 1060)
# T4 sequence (Q92731 whole entry): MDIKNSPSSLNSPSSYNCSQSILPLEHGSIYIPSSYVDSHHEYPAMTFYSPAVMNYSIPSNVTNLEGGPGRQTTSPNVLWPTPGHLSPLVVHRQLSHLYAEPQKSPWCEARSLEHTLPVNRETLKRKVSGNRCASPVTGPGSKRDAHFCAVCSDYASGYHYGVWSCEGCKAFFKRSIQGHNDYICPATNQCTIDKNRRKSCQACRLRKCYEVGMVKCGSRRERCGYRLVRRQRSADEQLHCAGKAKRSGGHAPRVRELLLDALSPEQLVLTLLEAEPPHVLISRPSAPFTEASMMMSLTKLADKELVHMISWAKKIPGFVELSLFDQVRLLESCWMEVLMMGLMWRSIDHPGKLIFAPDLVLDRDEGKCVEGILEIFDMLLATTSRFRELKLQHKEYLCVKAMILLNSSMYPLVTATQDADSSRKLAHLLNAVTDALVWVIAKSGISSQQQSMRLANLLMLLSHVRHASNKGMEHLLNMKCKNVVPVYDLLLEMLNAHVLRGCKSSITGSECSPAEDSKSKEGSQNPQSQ
# [13] = target: Induced myeloid leukemia cell differentiation protein Mcl-1 (Homo sapiens, UniProt Q07820); assay type: functional
# [14] = target: T5, Sentrin-specific protease 8 (Homo sapiens, UniProt Q96LD8); assay type: functional;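 further: kinetic enzyme assay of SENP8 cleaving a Nedd8 protein substrate, dose-response confirmation of screening hits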
# T5 sequence (Q96LD8 whole entry): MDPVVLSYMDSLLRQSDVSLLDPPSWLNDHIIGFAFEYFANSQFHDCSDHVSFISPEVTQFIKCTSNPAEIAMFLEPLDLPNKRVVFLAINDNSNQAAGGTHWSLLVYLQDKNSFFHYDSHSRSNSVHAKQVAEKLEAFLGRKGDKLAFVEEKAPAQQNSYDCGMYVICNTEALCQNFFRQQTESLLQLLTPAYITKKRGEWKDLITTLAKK
# Estrogen receptor = target: T6, Estrogen receptor (Homo sapiens, UniProt P03372);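 further: potency for inhibiting coactivator peptide recruitment to the receptor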
# T6 sequence (P03372 whole entry): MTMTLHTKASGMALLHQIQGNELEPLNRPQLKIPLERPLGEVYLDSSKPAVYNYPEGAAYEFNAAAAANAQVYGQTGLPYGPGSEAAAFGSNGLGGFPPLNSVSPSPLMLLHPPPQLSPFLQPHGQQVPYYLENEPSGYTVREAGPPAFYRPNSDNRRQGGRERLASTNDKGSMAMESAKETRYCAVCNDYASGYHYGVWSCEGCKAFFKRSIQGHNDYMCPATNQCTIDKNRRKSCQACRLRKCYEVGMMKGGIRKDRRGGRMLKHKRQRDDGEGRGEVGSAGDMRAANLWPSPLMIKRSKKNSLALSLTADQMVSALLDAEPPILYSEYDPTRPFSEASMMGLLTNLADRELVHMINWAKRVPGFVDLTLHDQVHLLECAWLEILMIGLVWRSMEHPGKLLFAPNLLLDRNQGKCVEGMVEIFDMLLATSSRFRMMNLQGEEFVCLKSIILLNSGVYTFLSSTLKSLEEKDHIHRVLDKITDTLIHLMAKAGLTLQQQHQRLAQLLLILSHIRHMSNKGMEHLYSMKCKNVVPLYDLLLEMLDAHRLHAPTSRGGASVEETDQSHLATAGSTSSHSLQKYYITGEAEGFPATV
# Estrogen receptor beta [15] = target: T4, Estrogen receptor beta
# [16] = target: T7, Beta-2 adrenergic receptor (Homo sapiens, UniProt P07550); assay: ADRB2 activation measured by internalization – cell-based, FAP fluorogen, flow cytometry, cherry pick 1, dose response (AID 588763); assay type: functional
# T7 sequence (P07550 whole entry): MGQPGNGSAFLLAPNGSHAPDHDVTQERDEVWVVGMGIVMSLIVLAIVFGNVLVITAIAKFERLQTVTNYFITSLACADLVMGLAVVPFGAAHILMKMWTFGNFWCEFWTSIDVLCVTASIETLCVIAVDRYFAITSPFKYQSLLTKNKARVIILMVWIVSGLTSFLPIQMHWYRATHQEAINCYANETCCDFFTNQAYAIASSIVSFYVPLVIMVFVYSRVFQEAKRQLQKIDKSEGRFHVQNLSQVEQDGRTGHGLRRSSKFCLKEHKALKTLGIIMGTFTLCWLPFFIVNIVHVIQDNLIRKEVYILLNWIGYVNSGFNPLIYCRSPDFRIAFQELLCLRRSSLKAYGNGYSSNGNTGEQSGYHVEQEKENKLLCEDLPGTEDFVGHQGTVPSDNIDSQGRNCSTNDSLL
# [17] = Cytotoxicity Dose Response with AM2.2-beta2AR cells for PowderSet01.; assay type: functional, cell-based; settings: read-out: EC50_MICROM
# [18] = target: T7, Beta-2 adrenergic receptor; assay: Dose response for HTS for Beta-2AR agonists via FAP method from Powderset1.; assay type: functional
# [19] = Counterscreen for inhibitors of Trypanosoma brucei methionyl tRNA synthetase (MetRS): Luminescence-based cell-based high throughput dose response assay to identify compounds that are cytotoxic to Jurkat human T lymphocyte cells.; assay type: functional
# [20] = target: T8, Methionyl-tRNA synthetase, putative (Trypanosoma brucei brucei, UniProt Q38C91); assay type: functional, Trypanosoma brucei brucei strain 927/4 GUTat10.1
# T8 sequence (Q38C91 whole entry): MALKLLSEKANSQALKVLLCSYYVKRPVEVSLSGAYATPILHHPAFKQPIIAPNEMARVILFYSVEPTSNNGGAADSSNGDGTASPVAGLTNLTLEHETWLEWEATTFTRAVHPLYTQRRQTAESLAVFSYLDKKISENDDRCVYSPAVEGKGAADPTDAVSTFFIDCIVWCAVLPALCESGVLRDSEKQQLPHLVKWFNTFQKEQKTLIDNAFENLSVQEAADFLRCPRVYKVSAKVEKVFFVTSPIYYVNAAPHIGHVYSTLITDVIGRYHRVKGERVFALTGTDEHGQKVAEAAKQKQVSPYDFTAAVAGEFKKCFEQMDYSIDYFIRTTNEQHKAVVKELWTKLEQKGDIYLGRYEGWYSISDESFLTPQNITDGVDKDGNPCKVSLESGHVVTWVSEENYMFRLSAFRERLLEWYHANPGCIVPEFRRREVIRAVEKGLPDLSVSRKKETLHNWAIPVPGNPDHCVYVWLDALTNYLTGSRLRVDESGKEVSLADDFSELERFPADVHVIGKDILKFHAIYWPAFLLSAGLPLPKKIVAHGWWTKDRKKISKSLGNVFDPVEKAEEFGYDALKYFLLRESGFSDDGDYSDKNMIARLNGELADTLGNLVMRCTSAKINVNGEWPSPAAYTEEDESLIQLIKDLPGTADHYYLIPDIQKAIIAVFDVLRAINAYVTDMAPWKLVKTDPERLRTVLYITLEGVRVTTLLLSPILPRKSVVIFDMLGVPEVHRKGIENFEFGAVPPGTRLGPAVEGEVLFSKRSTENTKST
# [21] = target: Long-chain-fatty-acid--AMP ligase FadD28 (Mycobacterium tuberculosis, UniProt P9WQ59); assay: Fluorescence polarization aasay to screen for inhibitors that compete for the binding of FadD28 to a bisubstrate Measured in Biochemical System Using Plate Reader - 2147-01_Inhibitor_Dose_CherryPick_Activity.; assay type: functional, Mycobacterium tuberculosis H37Rv
# [22] = target: T8, Methionyl-tRNA synthetase, putative; assay type: functional, Trypanosoma brucei brucei strain 927/4 GUTat10.1; remark: listed apart in the source
# Cytochrome P450 2C9 = Cytochrome P450 2C9 (Homo sapiens, UniProt P11712)
# Cytochrome P450 2C19 = Cytochrome P450 2C19 (Homo sapiens, UniProt P33261); assay: Cytochrome panel assay with activity outcomes. Panel member name: p450-cyp2c19 Compounds with AC50 equal or less than 10 uM are considered active; assay type: functional; settings: read-out: AC50
# Cytochrome P450 2C19, sequence (P33261 whole entry): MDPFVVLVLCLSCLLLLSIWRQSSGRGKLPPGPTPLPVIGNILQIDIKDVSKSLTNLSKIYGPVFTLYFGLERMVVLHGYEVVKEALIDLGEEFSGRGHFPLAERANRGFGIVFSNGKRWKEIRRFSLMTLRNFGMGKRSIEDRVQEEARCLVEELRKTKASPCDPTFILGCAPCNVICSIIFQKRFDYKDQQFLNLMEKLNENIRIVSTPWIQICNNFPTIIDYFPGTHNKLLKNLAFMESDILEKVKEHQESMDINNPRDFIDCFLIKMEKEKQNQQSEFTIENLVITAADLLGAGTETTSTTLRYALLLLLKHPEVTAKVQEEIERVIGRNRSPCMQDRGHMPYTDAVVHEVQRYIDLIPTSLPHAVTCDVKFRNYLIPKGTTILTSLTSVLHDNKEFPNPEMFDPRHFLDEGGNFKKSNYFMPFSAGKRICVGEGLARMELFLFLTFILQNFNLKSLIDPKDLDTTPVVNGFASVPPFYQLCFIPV
# [23] = system: Streptococcus sp. 'group A'; assay: Streptococcus pyogenes SK(-)GAS viability under kanamycin – luminescence, BacTiterGlo, confirmation, counter-screen for streptokinase expression inhibitor project, dose response (AID 1900); assay type: functional, organism-based
# Streptococcus = assay: GAS UMAA2166 growth inhibition – luminescence, BacTiterGlo, counter-screen for streptokinase expression inhibitor project, dose response (AID 1915); assay type: functional, organism-based;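 further: potency for reduction of bacterial viability or growth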
# [24] = target: Potassium voltage-gated channel subfamily KQT member 2 (Rattus norvegicus, UniProt O88943); assay: blockers of KCNQ2 channel current – cell-based, automated electrophysiology, set II, rat KCNQ2, dose response (AID 588637); assay type: functional
# Potassium voltage-gated channel subfamily KQT member 2, sequence (O88943 whole entry): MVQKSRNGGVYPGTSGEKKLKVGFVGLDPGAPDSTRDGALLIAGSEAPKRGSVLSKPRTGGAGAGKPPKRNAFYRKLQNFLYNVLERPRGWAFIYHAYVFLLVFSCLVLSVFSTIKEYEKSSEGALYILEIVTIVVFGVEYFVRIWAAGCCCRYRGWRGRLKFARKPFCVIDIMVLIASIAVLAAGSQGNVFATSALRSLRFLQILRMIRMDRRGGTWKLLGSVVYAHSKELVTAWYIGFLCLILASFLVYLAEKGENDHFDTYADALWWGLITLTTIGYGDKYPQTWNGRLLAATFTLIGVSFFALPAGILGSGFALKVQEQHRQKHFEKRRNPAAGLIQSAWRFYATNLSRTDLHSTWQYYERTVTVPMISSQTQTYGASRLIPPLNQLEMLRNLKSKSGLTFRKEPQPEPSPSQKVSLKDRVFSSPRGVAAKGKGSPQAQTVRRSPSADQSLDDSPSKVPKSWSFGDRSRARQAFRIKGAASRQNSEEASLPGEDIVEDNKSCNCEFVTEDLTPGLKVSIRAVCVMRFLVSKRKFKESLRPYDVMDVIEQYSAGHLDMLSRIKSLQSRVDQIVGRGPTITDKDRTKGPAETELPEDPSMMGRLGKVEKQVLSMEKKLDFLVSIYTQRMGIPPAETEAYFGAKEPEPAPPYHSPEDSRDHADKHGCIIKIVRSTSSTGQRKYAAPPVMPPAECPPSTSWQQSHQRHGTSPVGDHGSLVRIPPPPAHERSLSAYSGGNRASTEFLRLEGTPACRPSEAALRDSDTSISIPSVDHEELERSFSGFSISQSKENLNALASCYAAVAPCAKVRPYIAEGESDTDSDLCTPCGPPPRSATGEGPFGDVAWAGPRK
# Cytochrome P450 1A2 = target: T9, Cytochrome P450 1A2 (Homo sapiens, UniProt P05177);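 further: PubChem cytochrome P450 panel assay, CYP1A2 panel member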
# T9 sequence (P05177 whole entry): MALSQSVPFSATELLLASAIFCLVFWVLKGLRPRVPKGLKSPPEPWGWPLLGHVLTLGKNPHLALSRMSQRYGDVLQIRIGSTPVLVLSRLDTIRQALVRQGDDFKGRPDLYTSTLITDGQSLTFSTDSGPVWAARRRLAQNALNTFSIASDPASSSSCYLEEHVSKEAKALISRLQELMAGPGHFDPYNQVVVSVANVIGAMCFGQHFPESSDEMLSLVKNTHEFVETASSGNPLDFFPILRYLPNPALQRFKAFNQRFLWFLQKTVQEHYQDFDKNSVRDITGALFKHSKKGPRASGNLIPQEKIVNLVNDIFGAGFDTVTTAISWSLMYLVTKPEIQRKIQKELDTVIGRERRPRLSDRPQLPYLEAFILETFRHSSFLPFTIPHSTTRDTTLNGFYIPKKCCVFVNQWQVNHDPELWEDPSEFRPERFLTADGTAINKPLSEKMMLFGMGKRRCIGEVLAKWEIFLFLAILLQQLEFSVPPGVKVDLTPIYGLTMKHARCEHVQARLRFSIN
# Streptokinase A = target: T10, Streptokinase A (Streptococcus pyogenes serotype M1, UniProt P10520); assay: viability-normalized secreted streptokinase activity reduction – plasminogen activation absorbance, OD405, dose response (AID 1914); assay type: functional, Streptococcus pyogenes M1 GAS;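 further: secreted streptokinase activity via plasminogen activation per viability signal from cell pellet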
# T10 sequence (P10520 whole entry): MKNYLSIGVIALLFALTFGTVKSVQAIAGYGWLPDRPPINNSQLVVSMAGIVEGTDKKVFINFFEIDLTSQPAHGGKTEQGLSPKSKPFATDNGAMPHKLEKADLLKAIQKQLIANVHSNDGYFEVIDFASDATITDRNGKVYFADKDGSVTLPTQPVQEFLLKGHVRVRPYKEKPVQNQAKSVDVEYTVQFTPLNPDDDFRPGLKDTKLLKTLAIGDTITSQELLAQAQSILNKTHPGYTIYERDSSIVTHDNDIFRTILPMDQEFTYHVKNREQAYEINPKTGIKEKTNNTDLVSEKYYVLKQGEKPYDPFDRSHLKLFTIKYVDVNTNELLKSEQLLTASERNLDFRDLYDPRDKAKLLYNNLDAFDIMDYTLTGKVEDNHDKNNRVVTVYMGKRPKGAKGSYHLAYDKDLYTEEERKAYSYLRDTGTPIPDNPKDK
# [25] = target: ADP-ribosylation factor GTPase-activating protein 1 (Rattus norvegicus, UniProt Q62848); assay: Fluorescence polarization-based biochemical high throughput dose response screening assay to identify inhibitors of ADP-ribosylation factor GTPase activating protein 1 (ARFGAP1).; assay type: functional
# Cytochrome P450 2D6 = Cytochrome P450 2D6 (Homo sapiens, UniProt P10635);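 further: CYP2D6 member of a cytochrome P450 panel assay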
# Cytochrome P450 2D6, sequence (P10635 whole entry): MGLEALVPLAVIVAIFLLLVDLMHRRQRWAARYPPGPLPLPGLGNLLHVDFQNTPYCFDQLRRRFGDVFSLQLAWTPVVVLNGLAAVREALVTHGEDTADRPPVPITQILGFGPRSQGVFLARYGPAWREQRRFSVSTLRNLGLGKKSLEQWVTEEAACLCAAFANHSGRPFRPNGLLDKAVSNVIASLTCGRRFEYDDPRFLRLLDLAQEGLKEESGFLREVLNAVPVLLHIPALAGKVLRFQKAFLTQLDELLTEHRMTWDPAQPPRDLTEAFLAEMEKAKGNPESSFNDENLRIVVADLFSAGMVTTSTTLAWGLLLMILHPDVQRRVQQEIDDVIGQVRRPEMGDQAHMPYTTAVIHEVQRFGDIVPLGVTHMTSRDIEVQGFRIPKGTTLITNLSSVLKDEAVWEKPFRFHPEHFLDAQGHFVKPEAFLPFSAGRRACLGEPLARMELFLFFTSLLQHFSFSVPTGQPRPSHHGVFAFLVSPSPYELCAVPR
# INS1 = assay: INS-1E survival protection against cytokine death – cell-based, luminescence, retest, dose response (AID 449756); assay type: functional; settings: Rattus norvegicus;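 further: cell death triggered by IL-1 beta plus TNF-alpha plus IFN-gamma mixture; protective hits raise ATP signal compared with cytokine alone wells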
# Protein Wnt-3a = Protein Wnt-3a (Mus musculus, UniProt P27467); assay: antagonism of Wnt3a pathway luciferase reporter – Wnt-LIGHT cells, luminescence, selectivity assay for Gli-SUFU antagonist project, dose response (AID 651570); assay type: functional; settings: read-out: IC50_Mean;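 further: Wnt-LIGHT reporter cells stimulated with conditioned medium from Wnt3a-producing cells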
# Protein Wnt-3a, sequence (P27467 whole entry): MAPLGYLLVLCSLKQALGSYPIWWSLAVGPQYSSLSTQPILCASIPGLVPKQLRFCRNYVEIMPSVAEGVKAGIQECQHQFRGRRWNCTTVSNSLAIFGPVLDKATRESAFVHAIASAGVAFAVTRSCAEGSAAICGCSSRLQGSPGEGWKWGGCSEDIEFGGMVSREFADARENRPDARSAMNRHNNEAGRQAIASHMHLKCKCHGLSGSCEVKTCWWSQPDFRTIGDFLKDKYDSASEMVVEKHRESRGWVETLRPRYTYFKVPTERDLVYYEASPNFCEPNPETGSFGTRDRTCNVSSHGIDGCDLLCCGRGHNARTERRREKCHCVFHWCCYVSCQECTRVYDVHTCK
compound,measurement,setting,value
Oc1ccc(Cl)cc1/C=C(\Cl)c1nc(O)c2ccc(Cl)cc2n1,IC50,[1],> 50 µM (not active)
same,IC50,[2],428 nM (active)
same,AC50,[3],1.32 µM (active)
same,IC50,[4],654 nM (active)
same,IC50,[5],> 50 µM (not active)
Sc1nnc(-c2ccco2)n1-c1cccc2ccccc12,IC50,Beta-lactamase [6],> 59.6 µM (inactive)
same,IC50,Beta-lactamase [7],> 59.6 µM (inactive)
same,IC50,Beta-lactamase [8],> 59.6 µM (inactive)
CCOC(=O)CSC1=C(C#N)C(c2ccc(Cl)cc2)C(C(=O)OC)C(=O)N1 (stereo not given),EC50,[9],> 53 µM (inactive)
same,IC50,[10],26.5 µM (active)
same,IC50,[11],9.62 µM (active)
CN1C[C@@H]2[C@@H]3C(=O)N(Cc4ccccc4)C(=O)[C@@H]3[C@](C)(C1=O)N2C(=O)c1ccc(C(C)(C)C)cc1,AC50,Vero,24.6 µM (active)
CC1=C(SCCC#N)S/C(=C2\SC(C)=C(SCCC#N)S2)S1,IC50,Estrogen receptor beta [12],129 nM (not active)
same,IC50,[13],2.89 µM (active)
same,IC50,[14],299 nM (active)
same,IC50,Estrogen receptor,5.1 µM (active)
same,IC50,Estrogen receptor beta [15],> 50 µM (not active)
CCCCC(=O)Nc1ccc(S(=O)(=O)N2CCCCC2c2cccnc2)cc1 (stereo not given),EC50,[16],79.8 nM (active)
same,EC50,[17],23.3 µM (active)
same,EC50,[18],32.2 nM (active)
O=C(NN1C(=O)/C(=C/c2nc3ccccc3[nH]2)SC1=S)c1ccc(Cl)cc1,IC50,[19],83.3 µM (inactive)
same,IC50,[20],82.6 µM (inactive)
same,AC50,[21],1.13 µM (active)
same,IC50,[22],119 µM (inactive)
O=C(CSc1nc2ccccc2c(=O)n1NC(=O)c1ccccc1)c1ccc(Cl)cc1,AC50,Cytochrome P450 2C9,1 µM (inconclusive)
same,AC50,Cytochrome P450 2C19,2.24 µM (inconclusive)
same,EC50,[23],7.26 µM (active)
same,EC50,Streptococcus,> 150 µM (not active)
same,IC50,[24],1.53 µM (active)
same,AC50,Cytochrome P450 1A2,6.31 µM (inconclusive)
same,EC50,Streptokinase A,106 µM (active)
CCOC(=O)N1CCN(C(=O)CSc2nc(=O)n3cc(C)ccc3n2)CC1,IC50,[25],53.2 µM (inactive)
Cc1cc(/C=N/n2cnnc2)c(C)n1-c1ccc(OCc2ccccc2F)cc1,AC50,Cytochrome P450 2D6,17.8 µM (inconclusive)
same,AC50,INS1,3.41 µM (active)
same,IC50,Protein Wnt-3a,6.57 µM (active)
